Data reported in ChEMBL document CHEMBL1138924, “Crystal structure, spectroscopic, and biological study of the copper(II) complex with third-generation quinolone antibiotic sparfloxacin” (2006).
In brackets after ≈: the same amount, converted by molar mass.

Legend:
Type in all cases: functional
[1] = system: Pseudomonas aeruginosa; experiment: Antimicrobial activity against Pseudomonas aeruginosa
[2] = system: Staphylococcus aureus; experiment: Antimicrobial activity against Staphylococcus aureus
[3] = system: Escherichia coli; experiment: Antimicrobial activity against Escherichia coli

- MIC [1]: 0.25 µg/mL (≈ 0.637 µM)
- MIC [2]: 0.5 µg/mL (≈ 1.27 µM)
- MIC [3]: 8 µg/mL (≈ 20.4 µM)
Structure (SMILES): C[C@@H]1CN(c2c(F)c(N)c3c(=O)c(C(=O)O)cn(C4CC4)c3c2F)C[C@H](C)N1 [SPARFLOXACIN]
